In ChEMBL document CHEMBL1141017, “Triterpene based compounds with potent anti-maturation activity against HIV-1” (Bioorg Med Chem Lett, 2008):
Activity calls are given as the source filed them. No cut-off for these calls is given here.

Legend:
[1] = Oral bioavailability in Sprague-Dawley rat at 5 mg/kg; type: ADME, organism-based; details: in vivo
[2] = test system: Human immunodeficiency virus 1; experiment: Antiviral activity against HIV1 NL4-3 infected in human MT4 cells assessed as cytoprotection against virus-induced cytopathic effect after 4 days by cell viability assay; type: functional, organism-based; details: Human immunodeficiency virus 1, NL4-3, MT4, 96 h
[3] = (§1) Cytotoxicity against human PBMC by cell viability assay; type: cell-based; details: read-out: TC50 (the source's name)
[4] = Therapeutic index, ratio of TC50 for human MT4 cells to EC50 for HIV1 NL43; type: cell-based
[5] = Therapeutic index, ratio of TC50 for human MT4 cells to IC50 for HIV1 3B; type: cell-based
[6] = Cmax in Sprague-Dawley rat at 5 mg/kg, po; type: ADME, organism-based; design: dose 5 mg/kg, route oral; details: in vivo
[7] = Half life in Sprague-Dawley rat at 5 mg/kg, po; type: ADME, organism-based; design: dose 5 mg/kg, route oral; details: in vivo
[8] = Metabolic stability in Sprague-Dawley rat liver microsomes assessed as compound remaining after 40 mins; type: ADME, Microsome; details: read-out: Stability
[9] = test system: Human immunodeficiency virus 1; experiment: Antiviral activity against HIV1 3B replication in human PBMC assessed as reverse transcriptase activity after 7 days; type: functional, organism-based; details: for IC50: Human immunodeficiency virus 1, 3B, 168 h
[10] = Metabolic stability in human liver microsomes assessed as compound remaining after 40 mins; type: ADME, Microsome; details: read-out: Stability
[11] = Cytotoxicity against human MT4 cells after 4 days by cell viability assay; type: cell-based; details: read-out: TC50
[12] = AUC (0 to infinity) in Sprague-Dawley rat at 5 mg/kg, po; type: ADME, organism-based; design: time infinity, dose 5 mg/kg, route oral; details: plasma
[13] = Tmax in Sprague-Dawley rat at 5 mg/kg, po; type: ADME, organism-based; design: dose 5 mg/kg, route oral; details: in vivo
[14] = test system: PBMC; experiment: as §1; type: cell-based
[15] = Half life in Sprague-Dawley rat at 7.5 mg/kg, po; type: ADME, organism-based; design: dose 7.5 mg/kg, route oral; details: in vivo
[16] = Half life in Sprague-Dawley rat at 10 mg/kg, po; type: ADME, organism-based; design: dose 10 mg/kg, route oral; details: in vivo
[17] = Oral bioavailability in Sprague-Dawley rat at 7.5 mg/kg; type: ADME, organism-based; details: in vivo
[18] = Tmax in Sprague-Dawley rat at 10 mg/kg, po; type: ADME, organism-based; design: dose 10 mg/kg, route oral; details: in vivo
[19] = Oral bioavailability in Sprague-Dawley rat at 10 mg/kg; type: ADME, organism-based; details: in vivo
[20] = AUC (0 to infinity) in Sprague-Dawley rat at 7.5 mg/kg, po; type: ADME, organism-based; design: time infinity, dose 7.5 mg/kg, route oral; details: plasma
[21] = Tmax in Sprague-Dawley rat at 7.5 mg/kg, po; type: ADME, organism-based; design: dose 7.5 mg/kg, route oral; details: in vivo
[22] = Cmax in Sprague-Dawley rat at 7.5 mg/kg, po; type: ADME, organism-based; design: dose 7.5 mg/kg, route oral; details: in vivo
[23] = AUC (0 to infinity) in Sprague-Dawley rat at 10 mg/kg, po; type: ADME, organism-based; design: time infinity, dose 10 mg/kg, route oral; details: plasma
[24] = Cmax in Sprague-Dawley rat at 10 mg/kg, po; type: ADME, organism-based; design: dose 10 mg/kg, route oral; details: in vivo

SMILES | bioavailability [1] | EC50 [2] | CC50 [3] | selectivity ratio [4] | selectivity ratio [5] | Cmax [6] | half-life [7] | remaining at 40 min [8] | IC50 [9] | remaining at 40 min [10] | CC50 at 96 h [11] | AUC(0-inf) [12] | Tmax [13] | also measured
C=C(C)[C@@H]1CC[C@]2(C(=O)NCc3ccccc3C(=O)O)CC[C@]3(C)[C@H](CC[C@@H]4[C@@]5(C)CC[C@H](OC(=O)CC(C)(C)C(=O)O)C(C)(C)[C@@H]5CC[C@]43C)[C@@H]12 | 56.4% | 0.006 µM | 9.7 µM | > 400 | > 400 | 580 nM | 2 h | > 60% | 0.016 µM | > 60% | 4.5 µM | 1700 ng·h/mL | 3.2 h | –
C=C(C)[C@@H]1CC[C@]2(C(=O)NCc3cccc(OC)c3)CC[C@]3(C)[C@H](CC[C@@H]4[C@@]5(C)CC[C@H](OC(=O)CC(C)(C)C(=O)O)C(C)(C)[C@@H]5CC[C@]43C)[C@@H]12 | – | 0.019 µM | > 10 µM | > 400 | > 400 | – | – | 10% | 0.014 µM | 10% | > 10 µM | – | – | –
C=C(C)[C@@H]1CC[C@]2(C(=O)NCc3ccc(OC(F)(F)F)cc3)CC[C@]3(C)[C@H](CC[C@@H]4[C@@]5(C)CC[C@H](OC(=O)CC(C)(C)C(=O)O)C(C)(C)[C@@H]5CC[C@]43C)[C@@H]12 | – | 0.19 µM | – | > 400 | > 400 | – | – | 10% | – | 10% | 1 µM | – | – | TC50 [14]: Not Active; Activity [9]: inactive
C=C(C)[C@@H]1CC[C@]2(C(=O)NCCc3ccccc3C(=O)NCCC(=O)O)CC[C@]3(C)[C@H](CC[C@@H]4[C@@]5(C)CC[C@H](OC(=O)CC(C)(C)C(=O)O)C(C)(C)[C@@H]5CC[C@]43C)[C@@H]12 | – | 0.0031 µM | 11 µM | – | – | – | – | > 40% | 0.0094 µM | > 40% | 9.6 µM | – | – | half-life [15]: 4.54 h; half-life [16]: 7.8 h; bioavailability [17]: 15.5%; Tmax [18]: 4 h; bioavailability [19]: 1.6%; AUC(0-inf) [20]: 1650 ng·h/mL; Tmax [21]: 1 h; Cmax [22]: 860 nM; AUC(0-inf) [23]: 1260 ng·h/mL; Cmax [24]: 70 nM
C=C(C)[C@@H]1CC[C@]2(C(=O)NCc3cccc(OC(F)(F)F)c3)CC[C@]3(C)[C@H](CC[C@@H]4[C@@]5(C)CC[C@H](OC(=O)CC(C)(C)C(=O)O)C(C)(C)[C@@H]5CC[C@]43C)[C@@H]12 | – | 0.11 µM | – | > 400 | > 400 | – | – | 10% | – | 10% | 5.2 µM | – | – | TC50 [14]: Not Active; Activity [9]: inactive
C=C(C)[C@@H]1CC[C@]2(C(=O)NCc3ccc(F)cc3C(=O)O)CC[C@]3(C)[C@H](CC[C@@H]4[C@@]5(C)CC[C@H](OC(=O)CC(C)(C)C(=O)O)C(C)(C)[C@@H]5CC[C@]43C)[C@@H]12 | – | 0.052 µM | 1.5 µM | > 400 | > 400 | – | – | 10% | 0.004 µM | 10% | 3.2 µM | – | – | –
C=C(C)[C@@H]1CC[C@]2(C(=O)NCc3ccccc3OC)CC[C@]3(C)[C@H](CC[C@@H]4[C@@]5(C)CC[C@H](OC(=O)CC(C)(C)C(=O)O)C(C)(C)[C@@H]5CC[C@]43C)[C@@H]12 | – | 0.024 µM | > 10 µM | > 400 | > 400 | 40 nM | 2 h | 10% | 0.007 µM | 10% | > 10 µM | 114 ng·h/mL | 2 h | –
C=C(C)[C@@H]1CC[C@]2(C(=O)NCc3ccc(Cl)cc3)CC[C@]3(C)[C@H](CC[C@@H]4[C@@]5(C)CC[C@H](OC(=O)CC(C)(C)C(=O)O)C(C)(C)[C@@H]5CC[C@]43C)[C@@H]12 | 3.91% | 0.0179 µM | > 10 µM | > 400 | > 400 | 270 nM | 8 h | > 60% | 0.027 µM | > 60% | > 10 µM | 1340 ng·h/mL | 2 h | –
C=C(C)[C@@H]1CC[C@]2(C(=O)NCc3ccc(OC)cc3)CC[C@]3(C)[C@H](CC[C@@H]4[C@@]5(C)CC[C@H](OC(=O)CC(C)(C)C(=O)O)C(C)(C)[C@@H]5CC[C@]43C)[C@@H]12 | – | 0.026 µM | > 10 µM | > 400 | > 400 | – | – | 10% | 0.0235 µM | 10% | > 10 µM | – | – | –
C=C(C)[C@@H]1CC[C@]2(C(=O)NCCc3ccc(OC)cc3)CC[C@]3(C)[C@H](CC[C@@H]4[C@@]5(C)CC[C@H](OC(=O)CC(C)(C)C(=O)O)C(C)(C)[C@@H]5CC[C@]43C)[C@@H]12 | 1.84% | 0.012 µM | 1 µM | – | – | 40 nM | 4.8 h | – | 0.06 µM | – | > 10 µM | 245 ng·h/mL | 2 h | –
